The source of these data is article PMC9917632, “Structural and Biochemical Analyses of the Butanol Dehydrogenase from Fusobacterium nucleatum” (International Journal of Molecular Sciences, 2023).

Assay [1] concerns the target T1, FnYqdH (Fusobacterium nucleatum YqdH, butanol dehydrogenase) (Fusobacterium nucleatum, UniProt Q8R612).
T1 construct: gene FN1415; recombinant, yqdH cloned NcoI/XhoI in pPRO-EX-HTA, expressed in Escherichia coli; dimer; 384 residues modelled (CD to residue 385)
T1 sequence (Q8R612 1-385): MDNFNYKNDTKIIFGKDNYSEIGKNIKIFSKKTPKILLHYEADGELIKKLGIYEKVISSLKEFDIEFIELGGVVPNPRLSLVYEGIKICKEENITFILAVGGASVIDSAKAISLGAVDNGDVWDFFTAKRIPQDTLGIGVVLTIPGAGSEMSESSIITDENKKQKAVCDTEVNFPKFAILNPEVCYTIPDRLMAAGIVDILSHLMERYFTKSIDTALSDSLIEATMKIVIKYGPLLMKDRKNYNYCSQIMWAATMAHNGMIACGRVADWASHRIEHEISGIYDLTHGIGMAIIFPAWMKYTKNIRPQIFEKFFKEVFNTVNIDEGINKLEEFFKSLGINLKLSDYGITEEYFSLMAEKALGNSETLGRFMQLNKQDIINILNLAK
Kind of assay: X-ray crystal structure, […] Å, soaked crystal. The following applies: soaked 1 min with 10 mM NADH and 2 mM Co2+; nucleotide-binding domain; open conformation.

The target of assay [2] is T2, TmBDH (Thermotoga maritima, UniProt Q9WZS7).
T2 construct: gene TM_0820; purified protein, EDTA-treated (metal-free) then metal-reconstituted
T2 sequence (Q9WZS7 1-395): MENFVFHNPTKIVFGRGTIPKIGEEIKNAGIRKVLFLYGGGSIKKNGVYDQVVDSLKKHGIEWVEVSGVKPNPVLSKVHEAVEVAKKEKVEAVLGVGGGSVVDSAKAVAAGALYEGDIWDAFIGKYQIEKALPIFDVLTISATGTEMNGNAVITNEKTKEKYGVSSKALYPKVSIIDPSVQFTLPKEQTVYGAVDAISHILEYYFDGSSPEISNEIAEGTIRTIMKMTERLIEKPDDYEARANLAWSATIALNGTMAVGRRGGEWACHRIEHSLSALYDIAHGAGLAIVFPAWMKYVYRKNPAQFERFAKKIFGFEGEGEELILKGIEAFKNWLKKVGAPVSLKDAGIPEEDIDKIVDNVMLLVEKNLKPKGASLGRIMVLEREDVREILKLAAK
Kind of assay: NADH consumption, spectrophotometric. The following applies: metal-free enzyme reconstituted with 2 mM Zn2+, Co2+, Ni2+ or Fe3+; co-substrate butanal. The assay is classed as biochemical.

In assay [3] the target is T1, FnYqdH (Fusobacterium nucleatum YqdH, butanol dehydrogenase). Kind of assay: NADH consumption at […] nm, double reciprocal plot. The assay is classed as biochemical. The following applies: 0.1-0.5 mM NADH; co-substrate butanal; Tris-HCl pH 6.0, CoSO4, 35 °C (standard assay).
The target is the same in assay [4]. Kind of assay: NADPH consumption at […] nm, double reciprocal plot. The assay is classed as biochemical. The following applies: 0.1-1 mM NADPH; co-substrate butanal; Tris-HCl pH 6.0, CoSO4, 35 °C (standard assay).
Assay [5] addresses Fusobacterium nucleatum YqdH (butanol dehydrogenase) (Fusobacterium nucleatum). Put plainly: SEC; purified FnYqdH (500 uL of 1 mg/mL) on Superdex 200 10/300 GL; 20 mM Tris-HCl pH 8.0, 150 mM NaCl, 2 mM BME; 0.5 mL/min.

For the compound `NC(=O)C1=CN([C@@H]2O[C@H](COP(=O)(O)OP(=O)(O)OC[C@H]3O[C@@H](n4cnc5c(N)ncnc54)[C@H](O)[C@@H]3O)[C@@H](O)[C@H]2O)C=CC1` [NADH], in assay [1], the “X-ray crystal structure, 2.72 Å, soaked crystal” value was “an electron-density map corresponding to NADH and metal ions was clearly observed”. For the same compound, the “NADH consumption, spectrophotometric” value in assay [2] is recorded as “monitoring NADH consumption for five different metal ions”. The “apparent Km” value in assay [3] was “the apparent Km and Vmax values were measured with a purified protein”.

For `NC(=O)C1=CN([C@@H]2O[C@H](COP(=O)(O)OP(=O)(O)OC[C@H]3O[C@@H](n4cnc5c(N)ncnc54)[C@H](OP(=O)(O)O)[C@@H]3O)[C@@H](O)[C@H]2O)C=CC1` [NADPH], the “apparent Km” value in assay [4] was “NADH is preferred over NADPH in terms of FnYqdH activity (Figure S2)”.

One may read the stoichiometry N as a count of units in the complex or per binding partner. For “Fusobacterium nucleatum YqdH (butanol dehydrogenase) (enzyme)”, the stoichiometry N in assay [5] amounted to 2.
